The pIC50 is the IC50 on a negative log10 scale, so that one unit is a factor of ten.

pIC50: −log10 of the molar value. Where only a bound is given, the exact number is not on record here.

This is an account of results in patent US20240294489A1 (Captor Therapeutics S.A., priority 2020, published 2024).

Format in all cases: cell-based
For one test, the system named is LP-1. The experiment in a line: Cell viability, additional cell lines (CellTiter-Glo), LP-1. Particulars: Homo sapiens, LP-1, 72 h; read-out: Absolute IC50. Here is the method: (§1) Tumor cells are grown at 37° C. in a humidified atmosphere with 5% CO2 in RPMI 1640 medium, supplemented with 10% (v/v) fetal calf serum and 50 μg/ml gentamicin for up to 20 passages, and are passaged once or twice weekly.
(§2) Cells are harvested from exponential phase cultures, counted and plated in 96 well flat-bottom microtiter plates at a cell density depending on the cell line's growth rate (4,000-20,000 cells/well depending on the cell line's growth rate, up to 60,000 for hematological cancer cell lines) in RPMI 1640 medium supplemented with 10% (v/v) fetal calf serum and 50 μg/ml gentamicin (140 μl/well). Cultures are incubated at 37° C. and 5% CO2 in a humidified atmosphere. After 24 h, 10 μl of test compounds or control medium are added and left on the cells for another 72 h. Compounds are serially diluted in DMSO, transferred in cell culture medium, and added to the assay plates by using a Tecan Freedom EVO 200 robotic platform. The DMSO concentration is kept constant at 0.3% v/v across the assay plate. Viability of cells is quantified by the CellTiter-Glo® cell viability assay (Promega G8462). After incubation of cells, 100 μl of CellTiter-Glo® One Solution Assay reagent are added to each well. Plates are shaken for 2 minutes to induce cell lysis and incubated for 20 minutes prior to reading luminescence (LU) by using the EnVision® Xcite multilabel plate reader (Perkin Elmer). […]
Background: In ATP-based viability assays light output follows the ATP content of the culture.

The next test deals with Kelly cells. The experiment in a line: Cell survival clonogenic assay, Kelly. The conditions noted are these: 0.1-10 μM, crystal violet staining after 9-10 days. Here is the method:
To determine the ability of a single cell to form a colony (defined as a cluster of at least 50 cells), Kelly and Hep3B cells were maintained in RPM11640 (Kelly) or EMEM (Hep3B) medium, supplemented with penicillin/streptomycin and 10% FBS. The cells were counted and seeded on the 6-well plates, at the density of 1×10^3 cells per well, the compounds to be tested were added at the desired concentration range, and the cells were cultured at 37° C./5% CO2. After colony formation (9-10 days), the cells were washed and treated with 6.0% glutaraldehyde and 0.5% crystal violet mix for 30 min., followed by rinsing with water and drying at room temperature (RT).

The next test deals with NOMO-1. Nature of the test: Cell viability, additional cell lines (CellTiter-Glo), NOMO-1. Particulars: Homo sapiens, NOMO-1, 72 h; read-out: Absolute IC50. Here is the method: as §1, §2
The next test has as its system H929 cells. Nature of the test: Cell viability CTG assay, H929. Further details: key to Geomean absolute IC50 by molecule, 72 H: Inactive represents IC50 > 50 μM; C represents 50 μM ≥ IC50 > 5 μM. Particulars: H929, 72 h, 0.001-50 μM. In short, it runs like this:
(§3)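 Cells exposed to compound at 0.25% v/v DMSO for 72 h (37° C., 5% CO2). ATP quantified by CellTiter-Glo luminescence, normalized to DMSO control. Absolute IC50 (T/C=50%) by non-linear regression on duplicate means; geometric mean used for averages.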

The next test has as its target T1, SALL4 (Homo sapiens, UniProt Q96SW2+Q9UJQ4).
T1 construct: SALL4 degradation in the Kelly cell line was investigated; endogenous in cells; host or cells: Kelly
The experiment in a line: SALL4 degradation in the Kelly cell line, time course. Particulars: Kelly cells, 0.1 μM, 3, 6, 12, 24, 48 and 72 h, FIG. 2. Here is the method: Kelly cells were maintained in RPMI-1640 medium, supplemented with penicillin/streptomycin and 10% Fetal Bovine Serum (FBS). Cells were seeded on 6- or 12-well plates, and the compounds to be tested were added at the desired concentration range. Final DMSO concentration was 0.25%. After incubation (37° C., 5% CO2) for a specified period of time, cells were harvested, washed and cell lysates were prepared using RIPA lysis buffer. The amount of protein was determined via BCA assay, and the appropriate quantity was then loaded on the precast gel for the protein separation. After primary and secondary Ab staining, the membranes were washed and signals developed. The densitometry analysis was implemented to obtain the numeric values used later in the protein level evaluation process.

Another test concerns MOLP-2. Nature of the test: Cell viability, additional cell lines (CellTiter-Glo), MOLP-2. The conditions noted are these: MOLP-2, 72 h. As to the method:
as §1, §2

The subject of the next test is Hep3B cells. Nature of the test: Cell viability CTG assay, Hep3B. Particulars: Homo sapiens, 72 h, 0.001-50 μM, read-out: Hep3B Geomean absolute IC50 by molecule, 72 H. In short, it runs like this: as §3
Another test deals with OCI-AML2. The experiment in a line: Cell viability, additional cell lines (CellTiter-Glo), OCI-AML2. The conditions noted are these: Homo sapiens, OCI-AML2, 72 h; read-out: Absolute IC50. As to the method: as §1, §2
The next test concerns NCI-H929. Nature of the test: Cell viability, additional cell lines (CellTiter-Glo), NCI-H929. The conditions noted are these: Homo sapiens, NCI-H929, 72 h; read-out: Absolute IC50. Here is the method:
as §1, §2

Another test relates to MOLM-6. Nature of the test: Cell viability, additional cell lines (CellTiter-Glo), MOLM-6. Particulars: MOLM-6, 72 h. As to the method:
as §1, §2

In another test the test system is KG-1. The experiment in a line: Cell viability, additional cell lines (CellTiter-Glo), KG-1. Particulars: Homo sapiens, KG-1, 72 h. Here is the method: as §1, §2
[1] abbreviates: 9.5 μM, read-out: Test/Control viability at 9.5 μM.

T1 sequence (Q9UJQ4 whole entry): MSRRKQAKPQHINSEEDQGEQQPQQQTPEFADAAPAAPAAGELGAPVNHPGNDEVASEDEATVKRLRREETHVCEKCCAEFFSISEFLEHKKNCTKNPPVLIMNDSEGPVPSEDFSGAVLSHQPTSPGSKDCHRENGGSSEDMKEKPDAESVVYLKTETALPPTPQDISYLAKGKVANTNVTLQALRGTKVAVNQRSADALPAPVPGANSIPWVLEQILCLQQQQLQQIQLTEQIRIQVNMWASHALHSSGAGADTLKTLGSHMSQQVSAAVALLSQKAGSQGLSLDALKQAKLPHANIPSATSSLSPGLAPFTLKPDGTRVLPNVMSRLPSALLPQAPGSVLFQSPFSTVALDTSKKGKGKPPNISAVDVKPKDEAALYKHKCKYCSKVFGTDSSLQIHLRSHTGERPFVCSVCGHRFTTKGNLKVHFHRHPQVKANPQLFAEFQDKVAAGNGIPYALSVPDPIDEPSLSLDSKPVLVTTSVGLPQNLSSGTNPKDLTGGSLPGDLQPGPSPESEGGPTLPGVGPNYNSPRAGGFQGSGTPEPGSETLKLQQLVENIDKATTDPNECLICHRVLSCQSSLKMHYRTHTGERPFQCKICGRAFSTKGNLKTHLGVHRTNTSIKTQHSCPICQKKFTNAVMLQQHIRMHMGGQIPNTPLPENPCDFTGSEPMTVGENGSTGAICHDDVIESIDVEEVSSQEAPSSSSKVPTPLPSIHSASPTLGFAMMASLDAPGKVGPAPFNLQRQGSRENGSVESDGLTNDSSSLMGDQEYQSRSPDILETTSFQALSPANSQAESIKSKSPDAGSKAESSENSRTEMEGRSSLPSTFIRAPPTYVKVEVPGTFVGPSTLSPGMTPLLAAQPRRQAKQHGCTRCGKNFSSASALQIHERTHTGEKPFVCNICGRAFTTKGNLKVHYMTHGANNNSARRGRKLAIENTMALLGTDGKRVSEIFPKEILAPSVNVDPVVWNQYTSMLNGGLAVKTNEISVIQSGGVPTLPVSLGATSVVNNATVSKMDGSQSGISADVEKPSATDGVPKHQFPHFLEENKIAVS
T1 sequence (Q96SW2 whole entry): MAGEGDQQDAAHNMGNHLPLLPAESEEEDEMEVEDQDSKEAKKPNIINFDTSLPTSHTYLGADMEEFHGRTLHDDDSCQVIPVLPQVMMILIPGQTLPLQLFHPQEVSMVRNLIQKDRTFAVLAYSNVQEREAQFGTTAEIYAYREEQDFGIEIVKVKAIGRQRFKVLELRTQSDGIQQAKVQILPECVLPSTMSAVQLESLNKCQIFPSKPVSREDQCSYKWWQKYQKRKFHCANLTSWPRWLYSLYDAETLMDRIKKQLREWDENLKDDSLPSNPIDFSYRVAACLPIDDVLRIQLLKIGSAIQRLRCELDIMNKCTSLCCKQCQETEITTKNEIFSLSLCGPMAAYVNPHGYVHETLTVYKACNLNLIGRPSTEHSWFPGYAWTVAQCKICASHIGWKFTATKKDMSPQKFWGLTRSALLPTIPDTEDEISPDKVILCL
T1 sequence (Q16531 whole entry partner): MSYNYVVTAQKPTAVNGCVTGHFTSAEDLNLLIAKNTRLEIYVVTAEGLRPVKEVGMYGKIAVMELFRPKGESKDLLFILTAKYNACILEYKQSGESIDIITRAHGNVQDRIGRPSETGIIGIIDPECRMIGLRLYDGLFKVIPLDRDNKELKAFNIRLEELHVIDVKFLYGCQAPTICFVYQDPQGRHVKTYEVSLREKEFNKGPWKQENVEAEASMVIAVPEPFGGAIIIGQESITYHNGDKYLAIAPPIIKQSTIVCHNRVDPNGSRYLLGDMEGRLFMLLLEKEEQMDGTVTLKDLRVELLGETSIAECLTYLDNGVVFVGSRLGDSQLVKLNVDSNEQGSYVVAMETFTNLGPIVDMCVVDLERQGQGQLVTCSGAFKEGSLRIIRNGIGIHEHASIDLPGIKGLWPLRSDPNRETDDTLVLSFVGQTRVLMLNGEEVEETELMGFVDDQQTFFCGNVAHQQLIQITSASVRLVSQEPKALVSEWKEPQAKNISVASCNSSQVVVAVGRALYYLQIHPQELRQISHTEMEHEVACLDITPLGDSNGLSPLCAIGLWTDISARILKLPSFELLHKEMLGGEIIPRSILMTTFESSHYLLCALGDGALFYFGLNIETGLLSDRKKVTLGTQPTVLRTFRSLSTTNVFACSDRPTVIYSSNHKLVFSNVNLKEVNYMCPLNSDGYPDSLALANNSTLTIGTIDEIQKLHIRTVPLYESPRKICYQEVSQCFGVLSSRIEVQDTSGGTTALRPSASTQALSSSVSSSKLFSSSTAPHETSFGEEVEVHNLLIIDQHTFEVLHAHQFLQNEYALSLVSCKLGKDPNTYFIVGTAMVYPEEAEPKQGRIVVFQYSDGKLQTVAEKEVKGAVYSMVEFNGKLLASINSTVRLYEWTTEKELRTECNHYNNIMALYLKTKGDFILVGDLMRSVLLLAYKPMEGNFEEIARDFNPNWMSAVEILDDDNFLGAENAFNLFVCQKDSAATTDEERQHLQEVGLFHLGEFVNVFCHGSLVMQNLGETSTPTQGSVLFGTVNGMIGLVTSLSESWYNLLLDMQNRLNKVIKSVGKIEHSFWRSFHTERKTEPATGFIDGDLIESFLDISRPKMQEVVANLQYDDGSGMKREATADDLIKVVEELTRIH

Regarding `NCc1ccc2c(c1)CN(C1CCC(=O)NC1=O)C2=O` (centres unmarked) [Compound 1, 3-(5-(aminomethyl)-1-oxoisoindolin-2-yl)piperidine-2,6-dione], the pIC50 is below 4.52 with LP-1; below 4.52 in the test with NOMO-1; 6.00 to 7.00 in the test on MOLP-2 (read-out: Absolute IC50); at least 7.00 with Hep3B cells; below 4.52 in the test with OCI-AML2; below 4.52 with NCI-H929. For the same molecule, the pIC50 in the test with MOLM-6 (read-out: Absolute IC50) is 6.00 to 7.00; in the test with KG-1 (read-out: Absolute IC50), at least 7.00. Moreover, the “survival of the cells (colony formation)” value in the test with Kelly cells is “in most cases inhibited”. Moreover, the “Geomean absolute IC50 by molecule, 72 H” value in the test with H929 cells is reported as “Inactive”. Moreover, the “SALL4 degradation time course” value on SALL4 was “more rapidly and effectively than lenalidomide”. Further, the viability at 9.5 µM in the test on MOLP-2 (setting [1]) was at most 60%; in the test on MOLM-6 (setting [1]) it was at most 60%; in the test on KG-1 (setting [1]) it was at most 30%.
